From patent US10640463B2, “Chlorhexidine crystal forms and uses thereof in medicine” (Queen Mary University of London, priority 2016, dated 2020)

How the values were obtained:
[1] = Chlorhexidine release from HEMA-UDMA resin discs, with or without ultrasound; type: physicochemical; details: no ultrasound, within 65 hours
Description: HEMA-UDMA resin was prepared by mixing 64% urethane dimethacrylate (UDMA) (Esschem UK, Lot: 591-22) and 36% hydroxyethyl methacrylate (HEMA) (Aldrich, 128635, Lot: STBC7495V), 0.08% of N,N-dimethyl-P-toluidine (Acros Organics, Lot: A0207283001) and 0.05% dimethylamino ethyl methacrylate (Aldrich, 234907, Lot: BCBF8391V) were added. The mixture was then stirred for 15 min (800 rpm, VWR Stirrer, USA). Finally, camphorquinone (Aldrich, 12, 489-3, Lot: 2338141) was added at the proportion of 0.1%. The mixture was stirred for another 15 min (VWR Stirrer, USA), and then the viscous liquid resin was prepared. Freeze dried chlorhexidine chloride compounds produced in Example 2 (precipitated with 0.33 M CaCl2) were weighed and incorporated within the resin at a loading level of 5% by weight. To explore the effect of different morphology on the release kinetics, chlorhexidine compounds with spherical, needle and flake morphology (from Example 1, FIG. 1, panels (b) and (c)) were incorporated into the resin. Incorporation of the chlorhexidine compounds within the resin was carried out by rotating the mixture contained in a 1 ml tube for 15 s in a Rotomix (120V/60 Hz, 2850 rotations/min) (ESPE RotoMix, USA). Chlorhexidine diacetate was also incorporated in the prepared resin in the same way, with loading rates of 5%, 10% and 15% (weight %). The filled resin was then placed into a Teflon mould (10 mm in diameter ×2 mm thick) and cured through a Mylar film with a curing light (Bluedent LED pen, Bulgaria) (430-490 nm, 600 mW/sq·cm) for 30 s. Then the discs were next weighed on a microbalance (Salter Ander-180A weighing scale, UK), and chlorhexidine content in each disc was calculated.
For the release study, all sample resin discs (HEMA-UDMA) containing chlorhexidine chloride compounds or chlorhexidine diacetate powder prepared in Example 5 were kept in cuvettes containing 3 ml deionized water, and kept at room temperature. And at each time point, solutions were collected for UV absorption tests (Lambda 35, Perkin Elmer, USA) and replaced with fresh deionized water.
For the chlorhexidine chloride compound doped discs (Example 5) chlorhexidine content was fixed at 5%, and ultrasound was exerted. Four groups (five discs in each group) were repetitively treated with ultrasound for 0 s, 10 s, 20 s, 30 s, accordingly, by contacting the ultrasound probe (Piezon Master 400, Swiss, 60 Hz, 45VA) on the disc surface at time points of 1 h, 3 h, 5 h, 15 h, 25 h, 40 h, 65 h, 95 h, 140 h, 205 h. After that, no ultrasound was carried out for all the groups, but release was carried on until the 650 hour time point. The UDMA-HEMA discs containing needle and flake chlorhexidine compounds and chlorhexidine diacetate (FIG. 1, panels (b) and (c), and FIG. 3, panel (g)) were also tested (UV absorption tests) at the same time points (same sample numbers) but without ultrasound treatment. For the chlorhexidine diacetate powder doped discs chlorhexidine content of 5%, 10% and 15% were also analysed, and no ultrasound treatment was carried out.

[2] = Thermo-gravimetric analysis (TGA); type: physicochemical; details: TGA at 10° C./min in nitrogen, 50-800° C.
Description: The chlorhexidine chloride spheres (0.33M CaCl2 group) were analysed by Thermo-gravimetric analysis (TGA Q50, USA). Chlorhexidine diacetate crystals and CaCl2 powder (Sigma-Aldrich, C8106, Lot: SLBF7416V) were tested as comparisons. TGA was carried out at 10° C./min in a nitrogen atmosphere, over a temperature range of 50-800° C. The chlorhexidine proportion was further confirmed by the TGA result. […] The decomposition temperature of the chlorhexidine chloride spheres (210° C.) was higher than the chlorhexidine diacetate crystals (120° C.).

[3] = system: L929 cells; details: mouse
Description: 0.5% chlorhexidine spheres stock solution was used to prepare fresh successive dilutions in sterile deionised water to obtain the final concentrations ranging from 0.0005 to 0.25%. For controls (untreated cultures), sterile deionised water was used. 25 μl of each treatment were added into respective wells to achieve final concentrations ranging from 0.00005-0.025%.
L929 cells, a mouse fibroblast-like cell line (ECACC 85011425) were cultured in Dulbecco's Modified Eagle's Medium (DMEM; Lonza, UK) supplemented with 10% fetal bovine serum (FBS) with 100 IU/mL penicillin, 100 μg/mL streptomycin and 2 mmol/L glutamine (all from Invitrogen, UK) in an humidified incubator with 10% CO2 and 95% air at 37° C.
Cell metabolic activity was evaluated by measuring the mitochondrial activity using a method commonly known as a methyl-tetrazolium (MTT) assay. MTT assay was carried out according to the protocols outlined in ISO 1 0993-5:2009 (Biological evaluation of medical devices—Part 5: Tests for in vitro cytotoxicity).
Trypsinisation was performed by routine methods and cell suspension was counted using a haemocytometer and seeded in 96-well microtiter plates at a concentration of 10,000 cells per well. The cells were then left overnight in the incubator to adhere to the wells. Following overnight incubation, medium was removed and cells were washed twice with PBS. The cells were then treated with different concentrations of chlorhexidine spheres (0.00005-0.025%) for 24 and 48 hours. Following treatment, culture medium containing chlorhexidine spheres was removed and 50 μL of 5 mg/mL tetrazolium salt MTT (Sigma-Aldrich, Gillingham, UK) was added to each well and incubated in 37 C for 4 h. Formazan crystals generated by mitochondrial enzyme activity were dissolved by 100 μl of isopropanol and the intensity of purple coloured reaction product quantified by measuring the absorbance spectra at 570 nm. A cell viability level below 70% of control (no treatment) was regarded as the toxic concentration according to the ISO protocol.

SMILES | chlorhexidine released by weight ([1]; 5% loading, deionized water, room temperature) [%] | chlorhexidine released by weight ([1]; 10% loading) [%] | chlorhexidine released by weight ([1]; 15% loading) [%] | decomposition temperature [2] [°C] | cellular viability [3]
CC(=O)O.CC(=O)O.NC(=N\CCCCCC/N=C(N)/N=C(\N)Nc1ccc(Cl)cc1)/N=C(\N)Nc1ccc(Cl)cc1 [chlorhexidine diacetate, Chlorhexidine diacetate, reference compound] | 6.7 | 11.0 | 15.1 | 120 | –
[H]/N=C(\N/C(=N/[H])NCCCCCCNC(=N)NC(=N)Nc1ccc(Cl)cc1)Nc1ccc(Cl)cc1 [chlorhexidine, N,N″″1,6-Hexanediylbis[N′-(4-chlorophenyl)(imidodicarbonimidic diamide)]] | – | – | – | – | below 10%
